In one experiment the test system is L-lactate déshydrogénase. Briefly: Initial rate of oxidation of the reduced forms with L-lactate dehydrogenase (Example 7). Type of experiment: biochemical. Particulars: reduced forms after Na2S2O4 treatment; coenzyme 0,17 mM, Tris HCl 50 mM, 16 mM sodium pyruvate, 17 mU L-lactate dehydrogenase; NADH = 100. The protocol:
Ces mêmes produits, mais sous forme réduite après traitement au Na2S2O4, sont soumis à un essai de mesure de la vitesse initiale d'oxydation avec l'enzyme L-lactate déshydrogénase.
Cette mesure s'effectue sur un milieu réactionnel de 0,5 ml contenant le coenzyme 0,17 mM (exprimé comme dans l'exemple 6) le même tampon 50 mM, 16 mM en pyruvate de sodium et 17 mU de L-lactate déshydrogènase à 700 U/mg. A titre comparatif la même mesure est effectuée sur NADH et le dérivé de formule 4 réduit.

The next experiment has as its system hydrogénase. In words: Initial rate of reduction with a hydrogenase (Example 6). Type of experiment: biochemical. The following applies: coenzyme 0,17 mM expressed as bound NAD+, Tris HCl pH8,0 50 mM, hydrogen at saturation, 29 mU hydrogenase; NAD+ = 100. The protocol:
Les produits A à E préparés selon les procédés décrits dans les exemples 1 à 5 précédents sont soumis à un essai de mesure de la vitesse initale de réduction avec une hydrogénase.
Cette mesure s'effectue sur un milieu réactionnel de 0,28 ml contenant le coenzyme 0,17 mM, exprimé en NAD^+ lié pour les dérivés du NAD^+, 50 mM en tampon pH8,0 Tris HCl, de l'hydrogène à saturation et 29 mU d'enzyme hy- drogènase à 21 U/mg.
A titre comparatif la même mesure est effectuée sur le noyau NAD^+ et sur les dérivés substitués de formules (4) et (5).

The values that follow come from patent EP0206858A1, “Process for the synthesis of macromolecular derivatives of nicotinamide adenine” (SOCIETE NATIONALE ELF AQUITAINE, priority 1985, dated 1986).

Take `NCCCCCCNc1nc2c(N)ncnc2n1[C@@H]1O[C@H](COP(=O)(O)OP(=O)(O)OC[C@H]2O[C@@H](N3C=CCC(C(N)=O)=C3)[C@H](O)[C@@H]2O)[C@@H](O)[C@H]1O` [Dérivé (4) réduit]: the “Taux initial d'oxydation (%)” value in the experiment with L-lactate déshydrogénase is listed as 62,5%.
`NCCCCCCNc1nc2c(N)ncnc2n1[C@@H]1O[C@H](COP(=O)(O)OP(=O)([O-])OC[C@H]2O[C@@H]([n+]3cccc(C(N)=O)c3)[C@H](O)[C@@H]2O)[C@@H](O)[C@H]1O` [Dérivé (4), C^8-(6-aminohexyl)-amino-NAD^+]: in the experiment on hydrogénase, the “Taux initial de réduction (%)” value is listed as 50%.
On the same count and under the same terms, then `NCCNc1ncnc2c1ncn2[C@@H]1O[C@H](COP(=O)(O)OP(=O)([O-])OC[C@H]2O[C@@H]([n+]3cccc(C(N)=O)c3)[C@H](O)[C@@H]2O)[C@@H](O)[C@H]1O` [Dérivé (5), N^6-(2-aminoéthyl)-NAD^+], with 90%.
With `NC(=O)C1=CN([C@@H]2O[C@H](COP(=O)(O)OP(=O)(O)OC[C@H]3O[C@@H](n4cnc5c(N)ncnc54)[C@H](O)[C@@H]3O)[C@@H](O)[C@H]2O)C=CC1` [NADH, nicotinamide adénine dinucléotide], the “Taux initial d'oxydation (%)” value in the experiment on L-lactate déshydrogénase was found to be 100%.
On to `NC(=O)c1ccc[n+]([C@@H]2O[C@H](COP(=O)([O-])OP(=O)(O)OC[C@H]3O[C@@H](n4cnc5c(N)ncnc54)[C@H](O)[C@@H]3O)[C@@H](O)[C@H]2O)c1` [NAD^+], for which the “Taux initial de réduction (%)” value in the experiment with hydrogénase was found to be 100%.
